Inhibition and IC50 data for 55 molecules are collected here from US20250114361A1, “PYRAZOLOPYRIMIDINE COMPOUND AND PHARMACEUTICAL USE THEREOF” (Japan Tobacco Inc., priority 2022, published 2025).

For this assay, the target named is NLRP3 inflammasome (Homo sapiens (Human), UniProt Q96P20). Kind of assay: NLRP3 inflammasome inhibitory activity: inhibition of IL-1β production in THP1-Null cells (PMA, LPS, Nigericin). Format: cell-based. Conditions: for IC50: Nigericin 7.5 μmol/L. The method, then:
The NLRP3 inflammasome inhibitory activity of test compounds were evaluated on the basis of the inhibitory activity of the IL-1β production in THP1-Null cells (Product Number: thp-null, InvivoGen). Cells were maintained for culture in RPMI-1640 media containing 10% (v/v) fetal bovine serum, 25 mmol/L HEPES, 100 U/mL penicillin, 100 μg/mL streptomycin, 100 μg/mL normocin, and 200 μg/mL hygromycin B (set at 37° C., 5% CO2/95% air).
Cells were suspended with media for assay containing 0.5 μmol/L PMA (RPMI-1640 media containing 10% (v/v) fetal bovine serum, 100 U/mL penicillin, and 100 μg/mL streptomycin), and the suspended cells were seeded on Corning (registered trademark) 384-well Flat Clear Bottom Black Polystyrene TC-treated Microplates (25,000 cells/25 μL/well), followed by incubation (set at 37° C., 5% CO2/95% air) overnight. The supernatant of the culture was removed, and thereto was added media for assay (25 μL/well) containing 1 μg/mL Lipopolysaccharides (Product Number: L2654, Sigma-Aldrich (registered trademark)). Then, the culture was further incubated for 3 hours (set at 37° C., 5% CO2/95% air). The supernatant of the culture was removed. Then, a vehicle solution prepared from Opti-MEM (trademark) medium (Product Number: 31985-070, Invitrogen) was added to blank-setting wells and control-setting wells (20 μL/well), followed by incubation for 15 minutes (set at 37° C., 5% CO2/95% air). A solution containing a test compound (20 μL/well) was added to test compound-setting wells. Further, Opti-MEM (trademark) medium containing Nigericin (Product Number: N7143, Sigma-Aldrich (registered trademark)) was added to the control-setting wells and test compound-setting wells (5 μL/well), followed by incubation for 1.5 hours (set at 37° C., 5% CO2/95% air). The final concentration of Nigericin was adjusted to be 7.5 μmol/L. 5 μL/well of Opti-MEM (trademark) medium was added to the blank-setting wells. The supernatant of the culture was cryonically stored (set at −20° C.) until measurement of IL-1β.
The amount of IL-1β in the culture supernatant was quantitated with AlphaLISA (registered trademark) Human IL-1β Detection Kit (Product Number: AL220C, Perkin Elmer). Fluorescence intensity was measured with a microplate reader EnSpier (Model number: 2300-00J, Perkin Elmer) or EnSight (Model number: HH34000000, Perkin Elmer) according to procedure manuals attached thereto. Inhibition rates of the test compound-setting wells were calculated on the basis of 100% for the blank-setting wells and 0% for the control-setting wells. IC50 values (i.e., 50% inhibitory concentrations) of the test compounds were calculated by logistic regression analysis.

Chain of NLRP3 inflammasome (Q96P20 whole entry): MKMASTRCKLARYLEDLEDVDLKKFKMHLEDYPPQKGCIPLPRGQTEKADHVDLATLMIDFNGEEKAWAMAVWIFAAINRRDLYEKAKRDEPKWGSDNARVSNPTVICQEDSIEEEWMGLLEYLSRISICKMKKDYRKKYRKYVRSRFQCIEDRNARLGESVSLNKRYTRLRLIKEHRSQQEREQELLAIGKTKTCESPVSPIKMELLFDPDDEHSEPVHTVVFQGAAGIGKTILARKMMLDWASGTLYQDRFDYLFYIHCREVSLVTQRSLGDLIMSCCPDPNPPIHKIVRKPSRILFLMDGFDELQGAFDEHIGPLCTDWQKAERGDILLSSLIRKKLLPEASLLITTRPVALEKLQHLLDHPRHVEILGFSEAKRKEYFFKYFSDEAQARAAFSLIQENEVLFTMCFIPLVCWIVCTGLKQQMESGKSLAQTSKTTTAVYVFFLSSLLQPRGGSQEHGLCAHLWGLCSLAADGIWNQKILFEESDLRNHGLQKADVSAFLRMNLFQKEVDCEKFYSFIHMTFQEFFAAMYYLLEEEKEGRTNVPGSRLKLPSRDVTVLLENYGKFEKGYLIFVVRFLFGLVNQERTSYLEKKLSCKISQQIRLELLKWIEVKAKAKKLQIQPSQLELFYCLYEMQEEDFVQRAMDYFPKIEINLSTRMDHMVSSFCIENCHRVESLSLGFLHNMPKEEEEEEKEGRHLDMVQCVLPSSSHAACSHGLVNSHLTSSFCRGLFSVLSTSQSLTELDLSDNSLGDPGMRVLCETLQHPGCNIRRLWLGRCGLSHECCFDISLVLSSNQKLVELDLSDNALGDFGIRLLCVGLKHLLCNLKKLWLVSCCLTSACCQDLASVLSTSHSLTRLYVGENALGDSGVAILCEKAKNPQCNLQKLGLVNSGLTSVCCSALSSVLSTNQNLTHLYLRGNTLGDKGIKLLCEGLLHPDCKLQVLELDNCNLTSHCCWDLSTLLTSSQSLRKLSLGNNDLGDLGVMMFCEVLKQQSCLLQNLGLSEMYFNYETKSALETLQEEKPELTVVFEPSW

For `Cc1cc(C2(F)CC2(Cl)Cl)cc(C)c1-n1cc2c(=O)[nH]c(-c3ccn(C)n3)nc2n1` (racemic) [Example 45], under “at 2.4 μM”, the inhibition at 2.4 µM is 34%.

`Cc1ccccc1-n1cc2c(=O)[nH]c(-c3ccn(C)n3)nc2n1` [Example 1] yielded an IC50 of 3800 nM.

With `COc1cc(C)c(-n2cc3c(=O)[nH]c(-c4ccn(C)n4)nc3n2)c(C)c1` [Example 2], the IC50 is 64 nM.

The molecule `COc1cc(C)c(-n2cc3c(=O)[nH]c(-c4cnn(C)c4)nc3n2)c(C)c1` [Example 3] yielded an IC50 of 110 nM.

As for `Cc1cc(C2CC2)cc(C)c1-n1cc2c(=O)[nH]c(-c3ccn(C)n3)nc2n1` [Example 4, 2-(4-cyclopropyl-2,6-dimethylphenyl)-6-(1-methyl-1H-pyrazol-3-yl)-2,5-dihydro-4H-pyrazolo[3,4-d]pyrimidin-4-one], it took 15 nM to reach half-maximal inhibition (IC50).

For the molecule `Cc1cc(C2CC2)cc(C)c1-n1cc2c(=O)[nH]c(-c3ccnn3C)nc2n1` [Example 5], 23 nM corresponded to half-maximal inhibition (IC50).

Regarding `Cc1cn(C)nc1-c1nc2nn(-c3c(C)cc(C4CC4)cc3C)cc2c(=O)[nH]1` [Example 6], the IC50 is 50 nM.

For the molecule `Cc1cc(C(C)(F)F)cc(C)c1-n1cc2c(=O)[nH]c(-c3ccn(C)n3)nc2n1` [Example 8, 2-{4-(1,1-difluoroethyl)-2,6-dimethylphenyl}-6-(1-methyl-1H-pyrazol-3-yl)-2,5-dihydro-4H-pyrazolo[3,4-d]pyrimidin-4-one], the IC50 was determined as 33 nM.

On to `Cc1cc(OC(F)F)cc(C)c1-n1cc2c(=O)[nH]c(-c3ccn(C)n3)nc2n1` [Example 9], for which the half-maximal inhibitory concentration (IC50) was determined as 49 nM.

In the case of `Cc1cc(Br)cc(C)c1-n1cc2c(=O)[nH]c(-c3ccn(C)n3)nc2n1` [Example 10], the half-inhibitory concentration (IC50) was 20 nM.

`Cc1cc(Br)cc(C)c1-n1cc2c(=O)[nH]c(-c3cnn(C)c3)nc2n1` [Example 11] came in with an IC50 of 18 nM.

The molecule `Cc1cc(Br)cc(C)c1-n1cc2c(=O)[nH]c(-c3ccncn3)nc2n1` [Example 12, 2-(4-bromo-2,6-dimethylphenyl)-6-(pyrimidine-4-yl)-2,5-dihydro-4H-pyrazolo[3,4-d]pyrimidin-4-one] gave an IC50 of 7.8 nM.

For `Cc1cc(C2CC2)cc(C)c1-n1cc2c(=O)[nH]c(-c3cc[nH]n3)nc2n1` [Example 13], the concentration for half-maximal inhibition (IC50) came out at 29 nM.

`Cc1nnc(-c2nc3nn(-c4c(C)cc(Br)cc4C)cc3c(=O)[nH]2)o1` [Example 14] displayed an IC50 of 390 nM.

Molecule `Cc1cc(Br)cc(C)c1-n1cc2c(=O)[nH]c(-c3ccnnc3)nc2n1` [Example 15] registered an IC50 of 15 nM.

`COCCn1ccc(-c2nc3nn(-c4c(C)cc(Br)cc4C)cc3c(=O)[nH]2)n1` [Example 16] gave an IC50 of 47 nM.

As for `COCCn1nccc1-c1nc2nn(-c3c(C)cc(Br)cc3C)cc2c(=O)[nH]1` [Example 17], the IC50 was determined as 220 nM.

Take `Cc1cc(C2CC2)cc(C)c1-n1cc2c(=O)[nH]c(-c3ccn(C(F)F)n3)nc2n1` [Example 18]: inhibition was half-maximal at 55 nM (IC50).

`Cc1cc(C2CC2)cc(C)c1-n1cc2c(=O)[nH]c(-c3ccn(C4COC4)n3)nc2n1` [Example 19]: the IC50 is 62 nM.

`COCCn1ccc(-c2nc3nn(-c4c(C)cc(C5CC5)cc4C)cc3c(=O)[nH]2)n1` [Example 20]: the IC50 stood at 23 nM.

In turn, `Cc1cc(Br)cc(C)c1-n1cc2c(=O)[nH]c(-c3cn(C)nn3)nc2n1` [Example 21] yielded an IC50 of 13 nM.

As for `Cc1cc(Br)cc(C)c1-n1cc2c(=O)[nH]c(-c3cnccn3)nc2n1` [Example 22], 68 nM corresponded to half-maximal inhibition (IC50).

For `Cc1cc(Br)cc(C)c1-n1cc2c(=O)[nH]c(-c3cccnn3)nc2n1` [Example 23], the IC50 was found to be 22 nM.

On to `Cc1ncc(-c2nc3nn(-c4c(C)cc(Br)cc4C)cc3c(=O)[nH]2)o1` [Example 24], for which 53 nM corresponded to half-maximal inhibition (IC50).

`Cc1cc(-c2nc3nn(-c4c(C)cc(Br)cc4C)cc3c(=O)[nH]2)no1` [Example 25] showed an IC50 of 15 nM.

Molecule `Cc1cc(C2CC2)cc(C)c1-n1cc2c(=O)[nH]c(-c3cn(C)nn3)nc2n1` [Example 26] had an IC50 of 12 nM.

As for `Cc1cc(OC(F)F)cc(C)c1-n1cc2c(=O)[nH]c(-c3cccnn3)nc2n1` [Example 27], 62 nM corresponded to half-maximal inhibition (IC50).

The molecule `Cc1cc(C2CC2)cc(C)c1-n1cc2c(=O)[nH]c(-c3ccnnc3)nc2n1` [Example 28] registered an IC50 of 11 nM.

In turn, `Cc1cc(C(F)(F)F)cc(C)c1-n1cc2c(=O)[nH]c(-c3ccn(C)n3)nc2n1` [Example 29] gave an IC50 of 69 nM.

`CCn1ccc(-c2nc3nn(-c4c(C)cc(Br)cc4C)cc3c(=O)[nH]2)n1` [Example 30] showed an IC50 of 40 nM.

On to `Cc1cc(Br)cc(C)c1-n1cc2c(=O)[nH]c(-c3cc(C(F)(F)F)ncn3)nc2n1` [Example 31], for which half-maximal inhibition (IC50) required 940 nM.

Consider `Cc1cc(Br)cc(C)c1-n1cc2c(=O)[nH]c(-c3ccnc(C(F)(F)F)n3)nc2n1` [Example 32], for which it took 77 nM to reach half-maximal inhibition (IC50).

`Cc1cc(C(F)(F)F)cc(C)c1-n1cc2c(=O)[nH]c(-c3ccncc3F)nc2n1` [Example 33] showed an IC50 of 22 nM.

As for `COc1nccc(-c2nc3nn(-c4c(C)cc(Br)cc4C)cc3c(=O)[nH]2)n1` [Example 34], the half-maximal inhibitory concentration (IC50) is 27 nM.

In the case of `Cc1cc(Br)cc(C)c1-n1cc2c(=O)[nH]c(-c3ccncc3F)nc2n1` [Example 35], half-maximal inhibition (IC50) required 24 nM.

Consider `Cc1cc(C2CC2)cc(C)c1-n1cc2c(=O)[nH]c(-c3ccncc3F)nc2n1` [Example 36], for which half-maximal inhibition (IC50) required 16 nM.

In turn, `Cc1cc(Br)cc(C)c1-n1cc2c(=O)[nH]c(-c3nn(C)cc3F)nc2n1` [Example 37] gave an IC50 of 36 nM.

`Cc1cc(C2CC2)cc(C)c1-n1cc2c(=O)[nH]c(-c3nn(C)cc3F)nc2n1` [Example 38]: the IC50 was found to be 15 nM.

Turning to `Cc1cc(C2CC2)cc(C)c1-n1cc2c(=O)[nH]c(-c3cn(C)cn3)nc2n1` [Example 39, 2-(4-cyclopropyl-2,6-dimethylphenyl)-6-(1-methyl-1H-imidazol-4-yl)-2,5-dihydro-4H-pyrazolo[3,4-d]pyrimidin-4-one], the 50% inhibitory concentration (IC50) is 23 nM.

Consider `COCc1cc(C2CC2)cc(C)c1-n1cc2c(=O)[nH]c(-c3ccn(C)n3)nc2n1` [Example 40], for which the IC50 came out at 6.3 nM.

For the molecule `Cc1cc(C(C)(F)F)cc(C)c1-n1cc2c(=O)[nH]c(-c3cn(C)cn3)nc2n1` [Example 41, 2-{4-(1,1-difluoroethyl)-2,6-dimethylphenyl}-6-(1-methyl-1H-imidazol-4-yl)-2,5-dihydro-4H-pyrazolo[3,4-d]pyrimidin-4-one], the IC50 was found to be 40 nM.

`Cc1cc(C(C)(F)F)cc(C)c1-n1cc2c(=O)[nH]c(-c3ccncn3)nc2n1` [Example 42] gave an IC50 of 14 nM.

`Cc1cc(C2CC2)cc(C)c1-n1cc2c(=O)[nH]c(-c3ccncn3)nc2n1` [Example 43] showed an IC50 of 4.3 nM.

`Cc1cccc(C)c1-n1cc2c(=O)[nH]c(-c3ccn(C)n3)nc2n1` [Example 44] returned an IC50 of 880 nM.

With `Cc1cc(C2(F)CC2)cc(C)c1-n1cc2c(=O)[nH]c(-c3ccn(C)n3)nc2n1` [Example 46], the IC50 came out at 3.1 nM.

As to `Cc1cc(C2CC2)cc(C)c1-n1cc2c(=O)[nH]c(-c3cnn(C)c3)nc2n1` [Example 47], the IC50 is 6.7 nM.

`Cc1cc(I)cc(C)c1-n1cc2c(=O)[nH]c(-c3ccn(C)n3)nc2n1` [Example 48] had an IC50 of 2.5 nM.

`Cc1cc(C2CC2)cc(CO)c1-n1cc2c(=O)[nH]c(-c3ccn(C)n3)nc2n1` [Example 49] registered an IC50 of 37 nM.

In turn, `Cc1csc(-c2nc3nn(-c4c(C)cc(C5CC5)cc4C)cc3c(=O)[nH]2)n1` [Example 50] yielded an IC50 of 6 nM.

Take `Cc1cc(C2(O)CC2)cc(C)c1-n1cc2c(=O)[nH]c(-c3ccn(C)n3)nc2n1` [Example 51]: under “at 0.3 μM”, the inhibition at 0.3 µM is 35%.

As to `Cc1cc(C2CC2)cc(C)c1-n1cc2c(=O)[nH]c(-c3cscn3)nc2n1` [Example 52], the IC50 was 2 nM.

`Cc1cc(C2CC2)cc(C)c1-n1cc2c(=O)[nH]c(-c3cnn4c3OCCC4)nc2n1` [Example 53] returned an IC50 of 240 nM.

With `Cc1cc(C2CC2)cc(C)c1-n1cc2c(=O)[nH]c(-c3cc4n(n3)CCOC4)nc2n1` [Example 54], the IC50 stood at 9 nM.

`Cc1cc(C2CC2)cc(C)c1-n1cc2c(=O)[nH]c(-c3cc4n(n3)CCCO4)nc2n1` [Example 55] displayed an IC50 of 24 nM.

As to `Cn1ccc(-c2nc3nn(-c4cc5c(cc4Cl)OCCC5)cc3c(=O)[nH]2)n1` [Example 56], it took 84 nM to reach half-maximal inhibition (IC50).

For orientation: inhibition means how much of the control response was suppressed. A low value points to a response near the control. As a reminder, the IC50 is the midpoint of a concentration-inhibition curve. Higher therefore signals lower potency.
